# Assay results from patent US11389438B2 (CHDI Foundation, Inc., priority 2019, dated 2022).
# Structures can show the parent of a compound that is named as a salt.
# Target: pre-formed polyQ46 or Exon1-polyQ46 aggregates (mHTT) (Homo sapiens, UniProt P42858, INS38QQQQQQQQQQQQQQQQQQQQQQQQQ)
# Assay: Q46_RBA radioligand binding assay (displacement of [3H]-radioligand)
# Description: Binding of W to mHTT. A radioligand binding assay was developed to screen for compounds which can efficiently displace a radioligand detailed elsewhere (see, e.g., U.S. Patent Publication No. from US 2017/0292150) pre-formed polyQ46 or Exon1-polyQ46 aggregates (Q46_RBA).
# Aggregation of polyQ peptides is initiated by cleavage of the tag from a GST-polyQ46 or from a MBP-Exon1-polyQ46 fusion protein. The pre-formed aggregates are then incubated with compounds which compete with the [^3H]-radiolabelled ligand for binding to the aggregates. The readout is a scintillation based MicroBeta measurement of radioligand bound to aggregates. The activity was indicated as: +++, <100 nM; ++, 100-500 nM, +, >500 nM.
row,Structure (SMILES),IC50 [nM]
1,CC(C)C[C@H](NC(=O)[C@@H](O)[C@H](N)Cc1ccccc1)C(=O)NCCOCCOCCOc1ccc(C(=O)Nc2ccc3oc(-c4ccc(=O)n(C)n4)nc3c2)nc1 (stereo in doubt) [Compound 13],< 100
2,"CNc1c(-c2cn3c(n2)sc2cc(OCCOCCOCCOCCOCC(=O)N[C@H](C(=O)N4C[C@H](O)C[C@H]4C(=O)NCc4ccc(-c5scnc5C)cc4)C(C)(C)C)ccc23)nc2cc(C#N)ccn12 [Compound 4, (2S,4R)-1-((S)-2-(tert-butyl)-17-((2-(7-cyano-3-(methylamino)-imidazo[1,2-a]pyridin-2-yl)benzo[d]imidazo[2,1-b]thiazol-7-yl)oxy)-4-oxo-6,9,12,15-tetraoxa-3-azaheptadecan-1-oyl)-4-hydroxy-N-(4-(4-methylthiazol-5-yl)benzyl)-pyrrolidine-2-carboxamide]",100 to 500
3,"CNc1c(-c2cn3c(n2)sc2cc(OCCOc4cc(-c5scnc5C)ccc4CNC(=O)[C@@H]4C[C@@H](O)CN4C(=O)[C@H](C(C)C)N4Cc5ccccc5C4=O)ccc23)nc2cc(C#N)ccn12 [Compound 5, (2S,4R)—N-(2-(2-((2-(7-cyano-3-(methylamino)imidazo[1,2-a]pyridin-2-yl)benzo[d]imidazo[2,1-b]thiazol-7-yl)oxy)ethoxy)-4-(4-methylthiazol-5-yl)benzyl)-4-hydroxy-1-((S)-3-methyl-2-(1-oxoisoindolin-2-yl)butanoyl)pyrrolidine-2-carboxamide]",100 to 500
4,CNc1c(-c2cn3c(n2)sc2cc(OCCOCCOc4cc(-c5scnc5C)ccc4CNC(=O)[C@@H]4C[C@@H](O)CN4C(=O)[C@H](C(C)C)N4Cc5ccccc5C4=O)ccc23)nc2cc(C#N)ccn12 [Compound 6],100 to 500
5,CNc1c(-c2cn3c(n2)sc2cc(OCCOCCOCCOc4cc(-c5scnc5C)ccc4CNC(=O)[C@@H]4C[C@@H](O)CN4C(=O)[C@H](C(C)C)N4Cc5ccccc5C4=O)ccc23)nc2cc(C#N)ccn12 [Compound 7],100 to 500
6,CNc1c(-c2cn3c(n2)sc2cc(OCCOCCOCCOCCOc4cc(-c5scnc5C)ccc4CNC(=O)[C@@H]4C[C@@H](O)CN4C(=O)[C@H](C(C)C)N4Cc5ccccc5C4=O)ccc23)nc2cc(C#N)ccn12 [Compound 8],100 to 500
7,CNc1c(-c2cn3c(n2)sc2cc(OCCOCCNc4cccc5c4C(=O)N(C4CCC(=O)NC4=O)C5=O)ccc23)nc2cc(C#N)ccn12 (stereo not shown) [Compound 9],< 100
8,CC(C)C[C@H](NC(=O)[C@@H](O)[C@H](N)Cc1ccccc1)C(=O)NCCOCCOc1ccc(C(=O)Nc2ccc3oc(-c4ccc(=O)n(C)n4)nc3c2)nc1 [Compound 12],< 100
9,CC(C)C[C@H](NC(=O)[C@@H](O)[C@H](N)Cc1ccccc1)C(=O)NCCOCCOCCOCCOc1ccc(C(=O)Nc2ccc3oc(-c4ccc(=O)n(C)n4)nc3c2)nc1 [Compound 14],< 100
10,CC(C)C[C@H](NC(=O)[C@@H](O)[C@H](N)Cc1ccccc1)C(=O)NCCOCCOCCOCCOCCOc1ccc(C(=O)Nc2ccc3oc(-c4ccc(=O)n(C)n4)nc3c2)nc1 [Compound 15],< 100
11,CC(C)C[C@H](NC(=O)[C@@H](O)[C@H](N)Cc1ccccc1)C(=O)NCCOCCOCCOCCOCCOCCOc1ccc(C(=O)Nc2ccc3oc(-c4ccc(=O)n(C)n4)nc3c2)nc1 [Compound 16],< 100
12,CC(C)C[C@H](NC(=O)[C@@H](O)[C@H](N)Cc1ccccc1)C(=O)NCCOCCOCCOCCOCCOCCOCCOCCOCCOc1ccc(C(=O)Nc2ccc3oc(-c4ccc(=O)n(C)n4)nc3c2)nc1 [Compound 17],< 100
13,Cc1ncsc1-c1ccc(CNC(=O)[C@H]2C[C@H](O)CN2C(=O)[C@H](NC(=O)CCOCCOCCOCCOCCOCCOCCOCCOCCOCCOCCOCCOCCOCCOCCOCCOCCOc2ccc(C(=O)Nc3ccc4oc(-c5ccc(=O)n(C)n5)nc4c3)nc2)C(C)(C)C)cc1 [Compound 27],100 to 500
14,Cc1ncsc1-c1ccc(CNC(=O)[C@@H]2C[C@@H](O)CN2C(=O)[C@@H](NC(=O)COCCOc2ccc(C(=O)Nc3ccc4oc(-c5ccc(=O)n(C)n5)nc4c3)nc2)C(C)(C)C)cc1 [Compound 29],< 100
15,Cn1nc(-c2nc3cc(NC(=O)c4ccc(OCCOCCNc5cccc6c5C(=O)N(C5CCC(=O)NC5=O)C6=O)cn4)ccc3o2)ccc1=O (stereo not shown) [Compound 35],< 100
16,Cc1ncsc1-c1ccc(CNC(=O)[C@H]2C[C@H](O)CN2C(=O)[C@H](NC(=O)CCOCCOCCOCCOCCOCCOc2ccc(C(=O)Nc3ccc4oc(-c5ccc(=O)n(C)n5)nc4c3)nc2)C(C)(C)C)cc1 [Compound 41],< 100

row,Structure (SMILES),IC50 [nM]
1,"CC(C)C[C@H](NC(=O)[C@@H](O)[C@H](N)Cc1ccccc1)C(=O)NCCOCCOCCOc1ccc(COc2ccc3oc(-c4ccc(=O)n(C)n4)nc3c2)nc1 [Compound 49, (2S)-2-[(2S,3R)-3-Azaniumyl-2-hydroxy-4-phenylbutanamido]-4-methyl-N-{2-[2-(2-{[6-({[2-(1-methyl-6-oxo-1,6-dihydropyridazin-3-yl)-1,3-benzoxazol-5-yl]oxy}methyl)pyridin-3-yl]oxy}ethoxy)ethoxy]ethyl}pentanamide formate]",< 100
2,"COc1ccc(C(=O)Nc2ccc3oc(-c4ccc(=O)n(CCOCCOCCNC(=O)[C@H](CC(C)C)NC(=O)[C@@H](O)[C@H](N)Cc5ccccc5)n4)nc3c2)nc1 [Compound 50, N-(2-{1-[2-(2-{2-[(2S)-2-[(2S,3R)-3-Amino-2-hydroxy-4-phenylbutanamido]-4-methylpentanamido]ethoxy}ethoxy)ethyl]-6-oxo-1,6-dihydropyridazin-3-yl}-1,3-benzoxazol-5-yl)-5-methoxypyridine-2-carboxamide]",< 100
3,"Cc1ncsc1-c1ccc(CNC(=O)[C@H]2C[C@H](O)CN2C(=O)[C@H](NC(=O)COCCOc2ccc(C(=O)Nc3ccc4oc(-c5ccc(=O)n(C)n5)nc4c3)nc2)C(C)(C)C)cc1 [Compound 51, 5-[2-({[(2R)-1-[(2R,4S)-4-Hydroxy-2-({[4-(4-methyl-1,3-thiazol-5-yl)phenyl]methyl}carbamoyl)pyrrolidin-1-yl]-3,3-dimethyl-1-oxobutan-2-yl]carbamoyl}methoxy)ethoxy]-N-[2-(1-methyl-6-oxo-1,6-dihydropyridazin-3-yl)-1,3-benzoxazol-5-yl]pyridine-2-carboxamide]",< 100
4,"CC(C)C[C@H](NC(=O)CCCc1ccccc1)C(=O)NCCOCCOCCOc1ccc(COc2ccc3oc(-c4ccc(=O)n(C)n4)nc3c2)nc1 [Compound 52, (2S)-4-Methyl-N-{2-[2-(2-{[6-({[2-(1-methyl-6-oxo-1,6-dihydropyridazin-3-yl)-1,3-benzoxazol-5-yl]oxy}methyl)pyridin-3-yl]oxy}ethoxy)ethoxy]ethyl}-2-(4-phenylbutanamido)pentanamide]",< 100
5,"CC(C)C[C@H](NC(=O)[C@@H](O)[C@H](N)Cc1ccccc1)C(=O)NCCOCCOCCOc1ccc(NC(=O)c2ccn3c(n2)nc2ccccc23)cn1 [Compound 59, N-{6-[2-(2-{2-[(2S)-2-[(2S,3R)-3-amino-2-hydroxy-4-phenylbutanamido]-4-methylpentanamido]ethoxy}ethoxy)ethoxy]pyridin-3-yl}-1,8,10-triazatricyclo[7.4.0.0^2,7]trideca-2,4,6,8,10,12-hexaene-11-carboxamide]",< 100
6,"CC(C)C[C@H](NC(=O)[C@@H](O)[C@H](N)Cc1ccccc1)C(=O)NCCOCCOCCNc1ccc(NC(=O)c2ccn3c(n2)nc2ccccc23)cn1 [Compound 60, N-(6-{[2-(2-{2-[(2S)-2-[(2S,3R)-3-azaniumyl-2-hydroxy-4-phenylbutanamido]-4-methylpentanamido]ethoxy}ethoxy)ethyl]amino}pyridin-3-yl)-1,8,10-triazatricyclo[7.4.0.0^2,7]trideca-2,4,6,8,10,12-hexaene-11-carboxamide formate]",< 100
7,CC(C)C[C@H](NC(=O)[C@@H](O)[C@H](N)Cc1ccccc1)C(=O)NCCOCCOCCOc1ccc(C(=O)Nc2ccc3oc(-c4cccnc4)nc3c2)nc1 [Compound 61],< 100
8,"CC(C)C[C@H](NC(=O)[C@@H](O)[C@H](N)Cc1ccccc1)C(=O)NCCOCCOCCOCCOc1ccc(C(=O)Nc2ccc3oc(-c4cccnc4)nc3c2)nc1 [Compound 62, 5-{2-[2-(2-{2-[(2S)-2-[(2S,3R)-3-Azaniumyl-2-hydroxy-4-phenylbutanamido]-4-methylpentanamido]ethoxy}ethoxy)ethoxy]ethoxy}-N-[2-(pyridin-3-yl)-1,3-benzoxazol-5-yl]pyridine-2-carboxamide diformate]",< 100
9,Cc1ccc2nc(-c3ccc(NCCOCCOCCOc4cccc5c4C(=O)N(C4CCC(=O)NC4=O)C5=O)cc3)sc2c1 (stereo not shown) [Compound 63],< 100
10,Cc1ccc2nc(-c3ccc(NCCOCCOCC(=O)N[C@H](C(=O)N4C[C@H](O)C[C@H]4C(=O)NCc4ccc(-c5scnc5C)cc4)C(C)(C)C)cc3)sc2c1 [Compound 64],> 500
11,Cc1ccc2nc(-c3ccc(NCCOCCOCCNc4cccc5c4C(=O)N(C4CCC(=O)NC4=O)C5=O)cc3)sc2c1 (stereo not shown) [Compound 65],100 to 500
12,Cc1ccc2nc(-c3ccc(NC(=O)COCCOCCNC(=O)[C@H](CC(C)C)NC(=O)[C@@H](O)[C@H](N)Cc4ccccc4)cc3)sc2c1 [Compound 66],100 to 500
13,Cc1ccc2nc(-c3ccc(NCCOCCOCCOc4cc(-c5scnc5C)ccc4CNC(=O)C4C[C@@H](O)CN4C(=O)[C@H](C(C)C)N4Cc5ccccc5C4=O)cc3)sc2c1 (stereo partly shown) [Compound 67],100 to 500
14,Cc1ccc2nc(-c3ccc(NCCOCCOCCOCCNc4cccc5c4C(=O)N(C4CCC(=O)NC4=O)C5=O)cc3)sc2c1 (stereo not shown) [Compound 68],100 to 500
15,COc1ccc(NC(=O)c2ccnc(N(CCOCCOCCNC(=O)[C@H](CC(C)C)NC(=O)[C@@H](O)[C@H](N)Cc3ccccc3)c3ccccc3)n2)cn1 [Compound 69],> 500
